This note sets out measurements from PMC5940854, “Nitrothiophene carboxamides, a novel narrow spectrum antibacterial series: Mechanism of action and Efficacy” (Scientific Reports, 2018).

In brackets after ≈: the same amount, converted by molar mass.

The subject of one assay is E. coli ∆tolC JW5503-1. Kind of assay: MIC, E. coli ∆tolC. In kind it is cell-based. To be noted: Escherichia coli, read-out: MIC tolC. As for the experimental part:
(§1) The inoculum used for all the experiments is derived from a single seed lot that is maintained as glycerol stocks at −80 °C and are sub cultured on LB plate for isolated colonies. Single colony of each strain is grown in M9 medium. All test compound stocks and dilutions are prepared in DMSO. Serial two-fold dilutions of compounds are prepared separately, with the concentrations ranging from 2 mg/mL to 0.015 mg/mL. To 150 µl (3–7 × 10^5 CFU/ml) of bacterial culture in 96 well microtitre plates, 3 μL compound from each of the dilutions is added to respective wells to obtain final concentrations ranging from 40 µg/mL to 0.3 µg/mL of the test compounds. Media control, culture control and appropriate reference drug controls are included. […] Growth is monitored by checking absorbance at 600 nm (A600). […] The samples from MIC and above concentrations are plated for MBC (Minimum Bactericidal Concentration). The samples are diluted 1:10 and plated on LB agar plates. […] The killing kinetics is determined by enumerating survivors at various time points following compound exposure. E. coli cells (~10^7 CFU/ml; A600 of 0.1) are treated with various concentrations (40 µg/mL to 0.3 µg/mL) of compounds in a 96-well microtitre plate. At various time intervals (0 to 8 h), 30 μl volumes of treated cultures are serially diluted and plated on LB agar plates. […] Data is expressed as the log10 CFU for each drug treatment.

The next assay concerns E. coli ∆acrB JW0451-2. Kind of assay: MIC, E. coli ∆acrB. Details: MIC ∆acrB: unit not given beside the values. The conditions noted are these: for MIC: Escherichia coli, read-out: MIC acrB; for MIC ∆acrB: Table S11. In kind it is cell-based. The protocol:
as §1

A further assay relates to E. coli ∆nfsB. The experiment in a line: microbe, parasite or virus in culture. The class given is cell-based. To be noted: Escherichia coli, read-out: MIC ∆nfsB. As for the experimental part: (§2) To assess the biological relevance of the interacting protein and establish the link between nitroreductases to the antibacterial activity of NTC compounds, single (ΔnfsA or ΔnfsB) and double knockouts (ΔnfsA & ΔnfsB) of nitroreductases were generated by phage transduction using strains from the Keio collection.
as §1
The wild-type E. coli strain BW25113 and the entire Keio collection of knockouts[22] is maintained as glycerol stocks at −80 °C in 96-well deep well blocks. […] These are sub cultured in 150 µl of LB broth (Kanamycin 50 ug/ml, except for the wild-type strain) in 96 well microtiter plates and then adapted into M9 medium with 0.4% glucose. […] Cultures of single gene knockouts that show an altered MIC as compared to that of the wild type are scored as ‘Hits’.

The next assay has as its system E. coli ∆nfsA + ∆nfsB. The experiment in a line: microbe, parasite or virus in culture. The class given is cell-based. To be noted: for MIC: Escherichia coli, read-out: MIC ∆nfsA + ∆nfsB; for antibacterial activity in double knockout (in words): ΔnfsA and ΔnfsB double knockout strain. The protocol:
as §2, §1

The subject of another assay is E. coli ∆nfsA. Kind of assay: microbe, parasite or virus in culture. In kind it is cell-based. To be noted: Escherichia coli, read-out: MIC ∆nfsA. The protocol:
as §2, §1

The target in another assay is T1, NfsB (Escherichia coli, UniProt P38489).
T1 construct: His-tag; made in house; host or cells: E. coli BL21(DE3), pET28a (pET-nfsB)
The experiment in a line: Nitroreductase activity assay, NfsB. The class given is biochemical, E. coli. To be noted: 20 μM compound, 40 μM NADH, 70 nM NfsB; slope of initial velocity. As for the experimental part: Enzyme reducing each of the substrates are measured by monitoring the concomitant oxidation of NADPH by NfsA and NADH by NfsB in a fluorescence based assay. The reduction in fluorescence due to the NADH oxidation (excitation 350 nm, emission 460 nm) and NADPH oxidation (excitation 340 nm, emission 485 nm) is recorded using a TECAN Infinite M200Pro spectrophotometer, in half area solid black microtiter plates. This change in fluorescence directly corelates to the reduction of the nitro-compounds in the reaction. The NfsA assays is performed by initiating the reactions with 40 μM NADPH and 10 nM NfsA in 50 mM Tris-HCl (pH 7.4), 5 mM EDTA against 20 μM substrate (5 μl of compounds/substrate dissolved in 100% DMSO) in a total reaction volume of 100 μl at 25 °C. Similarly, the NfsB assay is also performed by initiating the reactions with 40 μM NADH and 70 nM NfsB in 50 mM Tris-HCl (pH 7.4), 5 mM EDTA against 20 μM substrate in a total reaction volume of 100 μl. […] All reactions are performed in replicates of two or more and the fluorescence measurements are made at 10 second intervals for 5–10 minutes.
Low solubility of the compounds/substrates under the NfsA and NfsB assay conditions precluded determination of their Km. […] The relative fluorescence units (RFU) obtained due to NADPH (excitation 340 nm, emission 485 nm) or NADH (excitation 350 nm, emission 460 nm) oxidation of the first 90 sec reaction is used to compute the slopes using linear regression analysis on GraphPad Prism. Appropriate blank reactions are included to account for background fluorescence/quenching from each of the components such as DMSO, the compound itself and auto-oxidation of NADPH or NADH. Activity of NfsB with a known substrate such as nitrofurantoin is used as a benchmark to plot the relative activities with all the test compounds.

Another assay relates to ATCC25922. Kind of assay: MIC on E. coli ATCC25922. The class given is cell-based. To be noted: strain ATCC25922. The protocol: as §1

T1 sequence (P38489 whole entry): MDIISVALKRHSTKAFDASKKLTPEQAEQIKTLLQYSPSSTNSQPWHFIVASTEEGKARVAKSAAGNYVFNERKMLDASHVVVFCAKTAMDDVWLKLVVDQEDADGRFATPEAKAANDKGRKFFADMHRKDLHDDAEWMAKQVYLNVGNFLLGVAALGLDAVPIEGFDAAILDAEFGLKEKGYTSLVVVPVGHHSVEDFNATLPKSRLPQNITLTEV

For the molecule `Cc1sc(NC(=O)c2ccc([N+](=O)[O-])s2)nc1-c1ccccc1` [compound 7, N-(5-Methyl-4-phenylthiazol-2-yl)-5-nitrothiophene-2-carboxamide], the MIC in the assay with E. coli ∆tolC JW5503-1 is 1.25 µg/mL (≈ 3.62 µM); with E. coli ∆acrB JW0451-2, 1.25 µg/mL (≈ 3.62 µM); with E. coli ∆nfsB, above 40 µg/mL; in the assay on E. coli ∆nfsA + ∆nfsB it was above 40 µg/mL; in the assay with E. coli ∆nfsA, above 40 µg/mL. Also, at NfsB, the “NfsB activity (rate of compound conversion)” value (“NfsB activity” for short) is listed as 6.17 µM/min.

Take `O=C(Nc1nc(-c2ccc(F)cc2F)cs1)c1ccc([N+](=O)[O-])s1` [compound 12, N-(4-(2,4-difluorophenyl)thiazol-2-yl)-5-nitrothiophene-2-carboxamide]: the MIC with E. coli ∆tolC JW5503-1 was 0.15 µg/mL (≈ 0.408 µM); in the assay with E. coli ∆acrB JW0451-2, 0.3 µg/mL (≈ 0.817 µM); against ATCC25922 it was 1 µg/mL (≈ 2.72 µM); in the assay on E. coli ∆nfsB it was 2.5 µg/mL (≈ 6.81 µM); in the assay with E. coli ∆nfsA + ∆nfsB, above 40 µg/mL; with E. coli ∆nfsA it was 0.6 µg/mL (≈ 1.63 µM). Moreover, the “MIC ∆acrB” value against E. coli ∆acrB JW0451-2 is 0.3. In addition, the “antibacterial activity in double knockout (in words)” value (“antibacterial activity” below) in the assay on E. coli ∆nfsA + ∆nfsB was “completely inactive”. At NfsB, the “NfsB activity” value was 6.26 µM/min.

With `O=C(Nc1nc(-c2ccc(F)cc2)cs1)c1ccc([N+](=O)[O-])s1` [compound 15, N-(4-(4-Fluorophenyl)thiazol-2-yl)-5-nitrothiophene-2-carboxamide], the MIC was 0.6 µg/mL (≈ 1.72 µM) in the assay with E. coli ∆tolC JW5503-1; 0.6 µg/mL (≈ 1.72 µM) with E. coli ∆acrB JW0451-2; 1.25 µg/mL (≈ 3.58 µM) against ATCC25922; 5 µg/mL (≈ 14.3 µM) with E. coli ∆nfsB; above 40 µg/mL in the assay on E. coli ∆nfsA + ∆nfsB; 0.6 µg/mL (≈ 1.72 µM) in the assay on E. coli ∆nfsA. In the assay on E. coli ∆acrB JW0451-2, the “MIC ∆acrB” value was determined as 0.6. The “antibacterial activity” value with E. coli ∆nfsA + ∆nfsB is “completely inactive”. For the same molecule, the “NfsB activity” value at NfsB was determined as 7.64 µM/min.

As for `COc1cc(-c2csc(NC(=O)c3ccc([N+](=O)[O-])s3)n2)ccc1Cl` [compound 20, N-(4-(4-chloro-3-methoxyphenyl)thiazol-2-yl)-5-nitrothiophene-2-carboxamide], the MIC with E. coli ∆tolC JW5503-1 was 0.3 µg/mL (≈ 0.758 µM); in the assay on E. coli ∆acrB JW0451-2 it was 0.3 µg/mL (≈ 0.758 µM); in the assay with ATCC25922 it was 2 µg/mL (≈ 5.05 µM); in the assay with E. coli ∆nfsB it was 2.5 µg/mL (≈ 6.32 µM); in the assay on E. coli ∆nfsA + ∆nfsB it was above 40 µg/mL; with E. coli ∆nfsA, 0.6 µg/mL (≈ 1.52 µM). Besides, the “MIC ∆acrB” value with E. coli ∆acrB JW0451-2 worked out at 0.3. The “antibacterial activity” value with E. coli ∆nfsA + ∆nfsB was “completely inactive”. For the same molecule, the “NfsB activity” value at NfsB was 3.50 µM/min.

In the case of `O=C1CN(/N=C/c2ccc([N+](=O)[O-])o2)C(=O)N1` [nitrofurantoin, reference compound], the MIC against ATCC25922 amounted to 20 µg/mL (≈ 84 µM); in the assay with E. coli ∆nfsB it was 2.5 µg/mL (≈ 10.5 µM); in the assay on E. coli ∆nfsA + ∆nfsB it was 20 µg/mL; in the assay on E. coli ∆nfsA, 5 µg/mL (≈ 21 µM). The “fold elevation of MIC in the double knockout” value with E. coli ∆nfsA + ∆nfsB (∆nfsA & ∆nfsB vs WT) was “about 8 fold”. Besides, the “NfsB activity” value on NfsB was found to be 3.50 µM/min.
